Assay: Minimum required dissolution temperature of ceramide NP in oils
Type: physicochemical
Protocol: The minimum required dissolution temperature for 0.1 g of ceramide NP in 20 g of various oils was determined.

- required dissolution temperatures (0.1 g of ceramide NP in 20 g Caprylic/Capric Triglycerides (TEGOSOFT ® CT)): 95 °C
- required dissolution temperatures (0.1 g of ceramide NP in 20 g Ethylhexyl Stearate (TEGOSOFT ® OS)): 100 °C
- required dissolution temperatures (0.1 g of ceramide NP in 20 g Persea gratissima (Avocado) oil): 100 °C
Substance: Ceramide NP
